We go through 3 compounds from ChEMBL document CHEMBL1149622, “Synthesis, resolution, stereochemistry, and molecular modeling of (R)- and (S)-2-acetyl-1-(4'-chlorophenyl)-6,7-dimethoxy-1,2,3,4-tetrahydroisoquinoline AMPAR antagonists” (2007).

The species entered for assay [1] is Mus musculus. The assay is described as follows: Anticonvulsant activity against audiogenic tonus seizures in DBA/2 mouse after 30 mins. In kind it is functional. The note with it: DBA/2, 0.5 h.
For assay [2], the species on record is Mus musculus. The assay is described as follows: Anticonvulsant activity against audiogenic clonus seizures in DBA/2 mouse after 30 mins. In kind it is functional. The note with it: DBA/2, 0.5 h.

Molecules are shown by their SMILES.

For `COc1cc2c(cc1OC)C(c1ccc(Cl)cc1)N(C(C)=O)CC2` (racemic), the values for the ED50 in the assay listed under Mus musculus [1] and in the assay filed under Mus musculus [2] were 3.53 µmol/kg and 6.51 µmol/kg, respectively.

Consider `COc1cc2c(cc1OC)[C@@H](c1ccc(Cl)cc1)N(C(C)=O)CC2`, for which the results for the ED50 in the assay listed under Mus musculus [1] and in the assay filed under Mus musculus [2] were 2.05 µmol/kg and 4.1 µmol/kg, respectively.

For the compound `COc1cc2c(cc1OC)[C@H](c1ccc(Cl)cc1)N(C(C)=O)CC2`, the ED50 – broadly, the dose that gives a 50% effect, or the effect in half of the subjects – in the assay filed under Mus musculus [1] amounted to 11.2 µmol/kg; in the assay listed under Mus musculus [2], 22.4 µmol/kg.
